Data taken from ChEMBL document CHEMBL1201862, “PubChem BioAssay data set” (2004).
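In this assay, cells in 96-well plates receive the compound at five concentrations for 48 hours. Endpoints are linearly interpolated between the surrounding concentrations. GI50 is the concentration that inhibits growth by half.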 Activity calls are given as the source filed them. No stated cut-off is given here; in the data, active = GI50 up to about 1.1 µM and inactive = higher.

How the values were obtained:
Experiment in all cases: growth of human tumour cells (NCI), 48 h
CCRF-CEM = tested on: CCRF-CEM
LOX IMVI = tested on: LOX IMVI
U-251 = tested on: U-251
NCI-H460 = tested on: NCI-H460
OVCAR-4 = tested on: OVCAR-4
786-0 = tested on: 786-0
HT-29 = tested on: HT-29
SR = tested on: SR
Malme-3M = tested on: Malme-3M
M14 = tested on: M14
NCI-H23 = tested on: NCI-H23
HCT-116 = tested on: HCT-116
SK-OV-3 = tested on: SK-OV-3
SK-MEL-28 = tested on: SK-MEL-28
OVCAR-8 = tested on: OVCAR-8
SF-295 = tested on: SF-295
TK-10 = tested on: TK-10
SK-MEL-2 = tested on: SK-MEL-2
DU-145 = tested on: DU-145

Row | SMILES | GI50 (CCRF-CEM) | GI50 (LOX IMVI) | GI50 (U-251) | GI50 (NCI-H460) | GI50 (OVCAR-4) | GI50 (786-0) | GI50 (HT-29) | GI50 (SR) | GI50 (Malme-3M) | GI50 (M14) | GI50 (NCI-H23) | GI50 (HCT-116) | GI50 (SK-OV-3) | GI50 (SK-MEL-28) | GI50 (OVCAR-8) | GI50 (SF-295) | GI50 (TK-10) | GI50 (SK-MEL-2) | GI50 (DU-145)
1 | O=C1CC[C@@H](S(=O)(=O)c2ccccc2)[C@@H](/C=C/c2ccccc2)O1 | > 100 µM (inactive) | > 100 µM (inactive) | > 100 µM (inactive) | > 100 µM (inactive) | > 100 µM (inactive) | > 100 µM (inactive) | > 100 µM (inactive) | > 100 µM (inactive) | > 100 µM (inactive) | > 100 µM (inactive) | > 100 µM (inactive) | > 100 µM (inactive) | > 100 µM (inactive) | > 100 µM (inactive) | > 100 µM (inactive) | > 100 µM (inactive) | > 100 µM (inactive) |  | 
2 | Nc1csc(-c2scc3c2OCCO3)c1N |  | 16 µM (inactive) | 15.6 µM (inactive) | 22.5 µM (inactive) | 26.6 µM (inactive) | 17.3 µM (inactive) | 20.7 µM (inactive) | 28.6 µM (inactive) | 16 µM (inactive) | 17.8 µM (inactive) | 15.5 µM (inactive) | 20 µM (inactive) |  | 17.5 µM (inactive) | 16.1 µM (inactive) | 17.7 µM (inactive) | 33.1 µM (inactive) | 17.5 µM (inactive) | 19.8 µM (inactive)
3 | O=P1(c2ccccc2)c2ccccc2-c2ccccc21 | 55.5 µM (inactive) | > 100 µM (inactive) |  |  |  | > 100 µM (inactive) |  |  |  | > 10 µM (inactive) | > 100 µM (inactive) | 99.3 µM (inactive) | > 100 µM (inactive) | > 100 µM (inactive) | > 100 µM (inactive) | 57.8 µM (inactive) | > 100 µM (inactive) | > 100 µM (inactive) | > 100 µM (inactive)
4 | CC(C)(C)CC(C)(C)NCC(O)COc1ccc(C(C)(C)c2ccc(OCC(O)CNC(C)(C)CC(C)(C)C)cc2)cc1 (stereo unspecified) | 0.356 µM (active) | 0.429 µM (active) | 0.7 µM (active) | 0.46 µM (active) | 2.01 µM (inactive) | 1.06 µM (active) | 0.403 µM (active) | 0.366 µM (active) | 1.59 µM (inactive) | 0.279 µM (active) | 1.76 µM (inactive) | 2.37 µM (inactive) | 1.77 µM (inactive) | 0.615 µM (active) | 1.64 µM (inactive) | 1.68 µM (inactive) |  | 1.84 µM (inactive) | 
5 | N#CC(C#N)=c1ccc(=C2NCC3CCCN23)cc1 (stereo unspecified) | > 100 µM (inactive) | > 100 µM (inactive) | > 100 µM (inactive) | > 100 µM (inactive) | > 100 µM (inactive) | > 100 µM (inactive) | > 100 µM (inactive) | > 100 µM (inactive) | > 100 µM (inactive) | > 100 µM (inactive) |  | > 100 µM (inactive) | > 100 µM (inactive) |  | > 100 µM (inactive) | > 100 µM (inactive) | > 100 µM (inactive) | > 100 µM (inactive) | 
6 | CC1(C)OCC(C2OC(OC(=O)c3ccc([N+](=O)[O-])cc3)C3OC(C)(C)OC23)O1 (stereo unspecified) | > 100 µM (inactive) | > 100 µM (inactive) | 49 µM (inactive) | > 100 µM (inactive) | > 100 µM (inactive) | 51.8 µM (inactive) | > 100 µM (inactive) | > 100 µM (inactive) | > 100 µM (inactive) | > 100 µM (inactive) | > 100 µM (inactive) | > 100 µM (inactive) | > 100 µM (inactive) | > 100 µM (inactive) | > 100 µM (inactive) | 53.2 µM (inactive) | > 100 µM (inactive) | > 100 µM (inactive) | > 100 µM (inactive)
7 | O=C1CCCC2=C1CC1=C(CCCC1=O)N2c1ccccc1C(=O)O | > 100 µM (inactive) | > 100 µM (inactive) | > 100 µM (inactive) | > 100 µM (inactive) | > 100 µM (inactive) | > 100 µM (inactive) | > 100 µM (inactive) | > 100 µM (inactive) |  | > 100 µM (inactive) | > 100 µM (inactive) |  | > 100 µM (inactive) | > 100 µM (inactive) | > 100 µM (inactive) |  | > 100 µM (inactive) |  | 
8 | CC(C)(O)C(O)COc1c2c(cc3oc(=O)ccc13)OCO2 (stereo unspecified) | > 100 µM (inactive) | > 100 µM (inactive) | > 100 µM (inactive) | > 100 µM (inactive) | > 100 µM (inactive) | > 100 µM (inactive) | > 100 µM (inactive) | > 100 µM (inactive) | > 100 µM (inactive) | > 100 µM (inactive) | > 100 µM (inactive) | > 100 µM (inactive) | > 100 µM (inactive) | > 100 µM (inactive) | > 100 µM (inactive) | > 100 µM (inactive) | > 100 µM (inactive) | > 100 µM (inactive) | 
